tested on: AR 1.0 cells; assay: Drug accumulation assay: daunorubicin accumulation in AR 1.0 cells; assay type: cell-based; conditions: Mus musculus, 100% = accumulation with verapamil 100 μM, 1 hr, 37° C.
Protocol: The EMT6 mouse mammary carcinoma cell line and the MDR resistant subline AR 1.0 were cultured in RPMI 1640 medium containing 10% foetal calf serum and 2 mM glutamine at 37° C. in 5% CO2. Cells were passaged between 1 in 200 and 1 in 2000 in the case of the parental cell line and between 1 in 20 and 1 in 200 in the case of the MDR resistant subline, after trypsinisation (0.25% trypsin, 0.2 gl^-1, EDTA).
AR 1.0 cells were seeded 48 hours prior to assay into 96 well opaque culture plates (Canberra Packard).

Structure (SMILES) | IC50 [µM]
COc1cc2c(cc1OC)CN(CCNC(=O)c1ccccc1NC(=O)c1ccc3c(c1)OCO3)CC2 [compound 9302, Benzo[1,3]dioxole-5-carboxylic acid {2-[2-(6,7-dimethoxy-3,4-dihydro-1H-isoquinolin-2-yl)-ethylcarbamoyl]-phenyl}-amide] | 5
COc1cc2c(cc1OC)CN(CCNC(=O)c1ccc(Cl)cc1NC(=O)c1ccc(C(C)C)cc1)CC2 [compound 9350, 2-(4-Isopropyl-benzoylamino)-N-[2-(6,7-dimethoxy-3,4-dihydro-1H-isoquinolin-2-yl)-ethyl]-4-chioro-benzamide] | 0.8
COc1cc2c(cc1OC)CN(CCNC(=O)c1ccccc1NC(=O)c1cccnc1)CC2 [compound 9359, N-{2-[2-(6,7-Dimethoxy-3,4-dihydro-1H-isoquinolin-2-yl)-ethylcarbamoyl]-phenyl}-nicotinamide] | > 10
COc1cc2c(cc1OC)CN(CCNC(=O)c1ccccc1NC(=O)c1ccccn1)CC2 [compound 9377, Pyridine-2-carboxylic acid {2-[2-(6,7-dimethoxy-3,4-dihydro-1H-isoquinolin-2-yl)-ethylcarbamoyl]-phenyl}-amide] | 5.5
COc1cc2c(cc1OC)CN(CCNC(=O)c1ccccc1NC(=O)c1ccncc1)CC2 [compound 9384, N-{2-[2-(6,7-Dimethoxy-3,4-dihydro-1H-isoquinolin-2-yl)-ethylcarbamoyl]-phenyl}-isonicotinamide] | > 10
COc1cc2c(cc1OC)CN(CCNC(=O)c1ccccc1NC(=O)c1cnccn1)CC2 [compound 9391, Pyrazine-2-carboxylic acid {2-[2-(6,7-dimethoxy-3,4-dihydro-1H-isoquinolin-2-yl)-ethylcarbamoyl]-phenyl}-amide] | > 10
COc1cc2c(cc1OC)CN(CCNC(=O)c1ccccc1NC(=O)c1cnc3ccccc3c1)CC2 [compound 9397, Quinoline-3-carboxylic acid {2-[2-(6,7 dimethoxy-3,4-dihydro-1H-isoquinolin-2-yl)-ethylcarbamoyl]-phenyl}-amide] | 10
COc1cc2c(cc1OC)CN(CCNC(=O)c1cccc(C)c1NC(=O)c1ccc(C(C)C)cc1)CC2 [compound 9398, 2-(4-Isopropyl-benzoylamino)-N-[2-(6,7-dimethoxy-3,4-dihydro-1H-isoquinolin-2-yl)-ethyl]-3-methyl-benzamide] | 1.5
COc1cc2c(cc1OC)CN(CCNC(=O)c1cccc(OC)c1NC(=O)c1ccc(C(C)C)cc1)CC2 [compound 9399, 2-(4-Isopropyl-benzoylamino)-N-[2-(6,7-dimethoxy-3,4-dihydro-1H-isoquinolin-2-yl)-ethyl]-3-methoxy-benzamide] | 5
COc1cc2c(cc1OC)CN(CCNC(=O)c1cccc(Cl)c1NC(=O)c1ccc(C(C)C)cc1)CC2 [compound 9401, 2-(4-Isopropyl-benzoylamino)-N-[2-(6,7-dimethoxy-3,dihydro-1H-isoquinolin-2-yl)-ethyl]-3-chioro-benzamide] | 3
COc1cc2c(cc1OC)CN(CCNC(=O)c1cc3ccccc3cc1NC(=O)c1ccc(C(C)C)cc1)CC2 [compound 9410, 3-(4-Isopropyl-benzoylamino)-naphthalene-2-carboxylic acid [2-(6,7-dimethoxy-3,4-dihydro-1H-isoquinolin-2-yl)-ethyl]-amide] | 3
O=C(Nc1ccccc1C(=O)NCCN1CCc2ccccc2C1)c1ccc(C2CCCCC2)cc1 [compound 9479, 2-(4-Cyclohexyl-benzoylamino)-N-[2-(3,4-dihydro-1H-isoquinolin-2-yl)-ethyl]-benzamide] | 2.1
COc1cc2c(cc1OC)CN(CCc1ccc(NC(=O)c3c(C)cccc3NC(=O)c3ccccc3)cc1)CC2 [compound 9512, 2-Benzoylamino-N-{4-[2-(617-dimethoxy-3,4-dihydro-1H-isoquinolin-2-yl)-ethyl]-phenyl}-6-methyl-benzamide] | 3.9
COc1cc2c(cc1OC)CN(CCc1ccc(NC(=O)c3ccccc3NC(=O)c3ccc(F)cc3F)cc1)CC2 [compound 9513, 2-(2,4-Difluoro-benzoylamino)-N-{4-[2-(6,7-dimethoxy-3,4-dihydro-1H-isoquinolin-2-yl)-ethyl]-phenyl}-benzamide] | 0.2
COc1cc2c(cc1OC)CN(CCc1ccc(NC(=O)c3ccccc3NC(=O)c3cc4ccccc4[nH]3)cc1)CC2 [compound 9515, 1H-Indole-2-carboxylic acid (2-{4-[2-(6,7-dimethoxy-3,4-dihydro-1H-isoquinolin-2-yl)-ethyl}-phenylcarbamoyl}-phenyl)-amide] | 1.2
COc1cc2c(cc1OC)CN(CCc1ccc(NC(=O)c3ccccc3NC(=O)c3ccccc3C(F)(F)F)cc1)CC2 [compound 9523, 2-(2-Trifluoromethyl-benzoylamino)-N-{4-[2-(6,7-dimethoxy-3,4-dihydro-1H-isoquinolin-2-yl)-ethyl]-phenyl}-benzamide] | 1.6

Structure (SMILES) | IC50 [µM]
COc1cc2c(cc1OC)CN(CCc1ccc(NC(=O)c3ccccc3NC(=O)c3cccc(C(F)(F)F)c3)cc1)CC2 [compound 9524] | 1
COc1cc2c(cc1OC)CN(CCc1ccc(NC(=O)c3ccccc3NC(=O)c3ccoc3)cc1)CC2 [compound 9526, Furan-3-carboxylic acid (2-{4-[2-(6,7-dimethoxy-3,4-dihydro-1H-isoquinolin-2-yl)-ethyl]-phenylcarbamoyl}-phenyl)-amide] | 1.4
COc1cc2c(cc1OC)CN(CCc1ccc(NC(=O)c3ccccc3NC(=O)c3cccc(N(C)C)c3)cc1)CC2 [compound 9556, 2-(3-Dimethylamino-benzoylamino)-N-{4-[2-(6,7-dimethoxy-3,4-dihydro-1H-isoquinolin-2-yl)-ethyl]-phenyl}-benzamide] | 0.86
COc1cc2c(cc1OC)CN(CCc1ccc(NC(=O)c3ccccc3NC(=O)c3ccc(O)cc3)cc1)CC2 [compound 9559, 2-(4-Hydroxy-benzoylamino)-N-{4-[2-(6,7-dimethoxy-3,4-dihydro-1H-isoquinolin-2-yl)-ethyl]-phenyl}-benzamide] | 2.06
COc1ccc(C(=O)Nc2ccccc2C(=O)Nc2ccc(CCN3CCc4cc(OC)c(OC)cc4C3)cc2)cn1 [compound 9582, N-(2-{4-[2-(6,7-Dimethoxy-3,4-dihydro-1H-isoquinolin-2-yl)-ethyl]-phenylcarbamoyl}-phenyl)-6-methoxy-nicotinamide] | 1.27
COc1cc2c(cc1OC)CN(CCc1ccc(NC(=O)c3ccccc3NC(=O)c3cc4ccccc4nc3Cl)cc1)CC2 [compound 9591, 2-Chloro-quinoline-3-carboxylic acid (2-{4-[2-(6,7-dimethoxy-3,4-dihydro-1H-isoquinolin-2-yl)-ethyl]-phenylcarbamoyl}-phenyl)-amide] | 0.425
COc1cc2c(cc1OC)CN(CCc1ccc(NC(=O)c3ccccc3NC(=O)c3cnc4cc(C(F)(F)F)ccc4c3O)cc1)CC2 [compound 9592, 4-Hydroxy-7-trifluoromethyl-quinoline-3-carboxylic acid (2-{4-[2-(6,7-dimethoxy-3,4-dihydro-1H-isoquinolin-2-yl)-ethyl]-phenylcarbamoyl}-phenyl)-amide] | > 10
COc1cc2c(cc1OC)CN(CCc1ccc(NC(=O)c3ccccc3NC(=O)c3cnc4ccccc4c3O)cc1)CC2 [compound 9606, 4-Hydroxy-quinoline-3-carboxylic acid (2-{4-[2-(6,7-dimethoxy-3,4-dihydro-1H-isoquinolin-2-yl)-ethyl]-phenylcarbamoyl}-phenyl)-amide] | > 10
COc1cc2c(cc1OC)CN(CCOc1ccc(NC(=O)c3ccccc3NC(=O)c3cnc4ccccc4c3)cc1)CC2 [compound 9623, Quinoline-3-carboxylic acid (2-{4-[2-(6,7-dimethoxy-3,4-dihydro-1H-isoquinolin-2-yl)-ethoxy]-phenylcarbamoyl}-phenyl)-amide] | 1.89
O=C(Nc1ccccc1C(=O)Nc1ccc(CCN2CCc3cc(Cl)c(Cl)cc3C2)cc1)c1cnc2ccccc2c1 [compound 9628, Quinoline-3-carboxylic acid (2-{4-[2-(6,7-dichloro-3,4-dihydro-1H-isoquinolin-2-yl)-ethyl]-phenylcarbamoyl}-phenyl)-amide] | 2.27
O=C(Nc1ccccc1C(=O)Nc1ccc(CCN2CCc3ccc(Cl)c(Cl)c3C2)cc1)c1cnc2ccccc2c1 [compound 9629, Quinoline-3-carboxylic acid (2-{4-[2-(7,8-dichloro-3,4-dihydro-1H-isoquinolin-2-yl)-ethyl]-phenylcarbamoyl}-phenyl)-amide] | > 10
O=C(Nc1ccccc1C(=O)Nc1ccc(CCN2CCc3ccc([N+](=O)[O-])cc3C2)cc1)c1cnc2ccccc2c1 [compound 9634, Quinoline-3-carboxylic acid (2-{4-[2-(7-nitro-3,4-dihydro-1H-isoquinolin-2-yl)-ethyl]-phenylcarbamoyl}-phenyl)-amide] | 6.96
COc1cc2c(cc1OC)CN(CCc1cccc(NC(=O)c3ccccc3NC(=O)c3cnc(C)cn3)c1)CC2 [compound 9653, 5-Methyl-pyrazine-2-carboxylic acid (2-{3-[2-(6,7-dimethoxy-3,4-dihydro-1H-isoquinolin-2-yl)-ethyl]-phenylcarbamoyl}-phenyl)-amide] | 0.49
COc1cc2c(cc1OC)CN(CC(C)c1ccc(NC(=O)c3ccccc3NC(=O)c3cnc4ccccc4c3)cc1)CC2 (stereo not shown) [compound 9654, Quinoline-3-carboxylic acid (2-{4-[2-(6,7-dimethoxy-3,4-dihydro-1H-isoquinolin-2-yl)-1-methyl-ethyl]-phenylcarbamoyl}-phenyl)-amide] | 0.135
CCCCOc1cc(CN(C)CCc2ccc(NC(=O)c3cc(OC)c(OC)cc3NC(=O)c3cnc4ccccc4c3)cc2)ccc1OC [compound 9656, Quinoline-3-carboxylic acid [2-(4-{2-[(3-butoxy-4-methoxy-benzyl)-methyl-amino]-ethyl}-phenylcarbamoyl)-4,5-dimethoxy-phenyl]-amide] | 0.188

— US6218393A, “Anthranilic acid derivatives as multi drug resistance modulators” (priority 1997, dated 2001)
